Results on one compound are retold here after publication PMC12758333 (Autophagy, 2025).

For this experiment, the target named is T1, HMGB1 (HMGB1-His) (Homo sapiens, UniProt P09429).
T1 sequence (P09429 1-215): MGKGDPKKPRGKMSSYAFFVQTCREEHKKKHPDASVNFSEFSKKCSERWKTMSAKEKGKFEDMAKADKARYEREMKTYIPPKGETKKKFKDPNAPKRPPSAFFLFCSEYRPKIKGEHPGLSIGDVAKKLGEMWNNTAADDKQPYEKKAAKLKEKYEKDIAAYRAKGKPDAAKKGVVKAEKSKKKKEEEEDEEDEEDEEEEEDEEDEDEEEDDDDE
As to the kind of experiment: microscale thermophoresis. The experiment is classed as binding. Background: MST reads how a fluorescent partner responds to local heating, with and without ligand.

Consider `CN1CCN(c2ccc(C(=O)Nc3n[nH]c4ccc(Cc5cc(F)cc(F)c5)cc34)c(NC3CCOCC3)c2)CC1` [entrectinib], for which binding was put at a Kd of 65.5 µM.

The Kd is the free concentration of one partner at which half of the binding sites on the other are occupied at equilibrium, for simple one-to-one binding. A higher Kd goes with a looser complex.
